Results from ChEMBL document CHEMBL1157814, “Modulation of cellular adhesion by glycoengineering” (J Med Chem, 2010).
Active and inactive are the calls of the source. The calls are words filed in the database; no cut-off is given here.

Molecular target: T1, P-selectin (Homo sapiens) (UniProt P16109)
T1 sequence (whole entry): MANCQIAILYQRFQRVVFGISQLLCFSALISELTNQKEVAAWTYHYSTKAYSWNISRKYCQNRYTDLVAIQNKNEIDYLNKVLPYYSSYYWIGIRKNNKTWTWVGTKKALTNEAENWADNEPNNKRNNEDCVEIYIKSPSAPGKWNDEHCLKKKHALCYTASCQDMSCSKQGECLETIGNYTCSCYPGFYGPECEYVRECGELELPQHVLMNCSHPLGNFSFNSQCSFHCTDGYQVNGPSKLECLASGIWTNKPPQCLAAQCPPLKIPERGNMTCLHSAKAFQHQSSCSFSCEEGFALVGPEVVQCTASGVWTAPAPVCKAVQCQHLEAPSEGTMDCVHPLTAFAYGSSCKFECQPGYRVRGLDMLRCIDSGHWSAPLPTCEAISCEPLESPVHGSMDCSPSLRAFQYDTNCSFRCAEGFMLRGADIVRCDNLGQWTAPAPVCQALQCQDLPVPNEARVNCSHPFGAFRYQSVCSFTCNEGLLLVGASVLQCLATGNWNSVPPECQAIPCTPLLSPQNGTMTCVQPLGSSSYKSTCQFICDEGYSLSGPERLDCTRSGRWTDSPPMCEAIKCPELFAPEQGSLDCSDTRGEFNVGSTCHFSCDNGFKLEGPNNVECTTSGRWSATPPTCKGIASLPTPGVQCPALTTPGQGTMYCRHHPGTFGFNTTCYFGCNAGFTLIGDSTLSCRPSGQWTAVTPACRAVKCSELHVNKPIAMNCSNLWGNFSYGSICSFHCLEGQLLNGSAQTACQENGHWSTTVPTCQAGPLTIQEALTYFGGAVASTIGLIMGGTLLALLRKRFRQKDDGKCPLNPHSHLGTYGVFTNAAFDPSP
Test: Inhibition of human HL60 cell adhesion to P-selectin coated on microtiter plates assessed as reduction in adhesion at 200 uM after 3 days by calcein-AM assay relative to untreated cells
Assay type: cell-based
Design: scale not given: the % may be the effect or the level left
Details: HL-60

Compound COC(=O)[C@@]1(OC(C)=O)C[C@H](OC(C)=O)[C@@H](NC(=O)CC(C)C)[C@H]([C@@H](OC(C)=O)[C@@H](COC(C)=O)OC(C)=O)O1 has an Activity of 10%.
Work on COC(=O)[C@@]1(OC(C)=O)C[C@H](OC(C)=O)[C@@H](NC(=O)CCC(C)C)[C@H]([C@@H](OC(C)=O)[C@@H](COC(C)=O)OC(C)=O)O1 yielded an Activity of 44%.
COC(=O)[C@@]1(OC(C)=O)C[C@H](OC(C)=O)[C@@H](NC(=O)CCC(F)(F)F)[C@H]([C@@H](OC(C)=O)[C@@H](COC(C)=O)OC(C)=O)O1 showed an Activity of 77%.
COC(=O)[C@@]1(OC(C)=O)C[C@H](OC(C)=O)[C@@H](NC(=O)CC(F)(F)F)[C@H]([C@@H](OC(C)=O)[C@@H](COC(C)=O)OC(C)=O)O1 gave an Activity of 62%.
With CCC(=O)N[C@H]1[C@H]([C@@H](OC(C)=O)[C@@H](COC(C)=O)OC(C)=O)O[C@@](OC(C)=O)(C(=O)OC)C[C@@H]1OC(C)=O the Activity was “Active”.
